Laboratory results reported in PubChem BioAssay (NCI).
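Dose response: 5 concentrations. Exposure: 48 h. Format: 96-well plates. Endpoint: linear interpolation; highest concentration if not reached. The concentration for full growth arrest is given as TGI.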

Columns and labels:
Test in all cases: NCI anticancer screen, dose series, 48 h
K-562 leukemia = tested on: K-562 leukemia
CAKI-1 renal = tested on: CAKI-1 renal
HOP-92 NSCLC = tested on: HOP-92 NSCLC
T-47D breast = tested on: T-47D breast
SK-MEL-28 melanoma = tested on: SK-MEL-28 melanoma
SF-268 CNS = tested on: SF-268 CNS
MALME-3M melanoma = tested on: MALME-3M melanoma
A549 NSCLC = tested on: A549 NSCLC
OVCAR-4 ovarian = tested on: OVCAR-4 ovarian
UACC-62 melanoma = tested on: UACC-62 melanoma
HS 578T breast = tested on: HS 578T breast
NCI/ADR-RES ovarian = tested on: NCI/ADR-RES ovarian
SN12C renal = tested on: SN12C renal
UACC-257 melanoma = tested on: UACC-257 melanoma
OVCAR-5 ovarian = tested on: OVCAR-5 ovarian
MOLT-4 leukemia = tested on: MOLT-4 leukemia
MCF7 breast = tested on: MCF7 breast
OVCAR-3 ovarian = tested on: OVCAR-3 ovarian
SK-OV-3 ovarian = tested on: SK-OV-3 ovarian
SK-MEL-2 melanoma = tested on: SK-MEL-2 melanoma
NCI-H460 lung = tested on: NCI-H460 lung
HCT-116 colon = tested on: HCT-116 colon
OVCAR-8 ovarian = tested on: OVCAR-8 ovarian
COLO 205 colon = tested on: COLO 205 colon
HOP-62 NSCLC = tested on: HOP-62 NSCLC
PC-3 prostate = tested on: PC-3 prostate
DU-145 prostate = tested on: DU-145 prostate
HT29 colon = tested on: HT29 colon
KM12 colon = tested on: KM12 colon
IGROV1 ovarian = tested on: IGROV1 ovarian
NCI-H23 lung = tested on: NCI-H23 lung
M14 melanoma = tested on: M14 melanoma
A498 renal = tested on: A498 renal
SK-MEL-5 melanoma = tested on: SK-MEL-5 melanoma
HL-60(TB) leukemia = tested on: HL-60(TB) leukemia
NCI-H522 lung = tested on: NCI-H522 lung
ACHN renal = tested on: ACHN renal
BT-549 breast = tested on: BT-549 breast
SNB-19 CNS = tested on: SNB-19 CNS
HCT-15 colon = tested on: HCT-15 colon
UO-31 renal = tested on: UO-31 renal
SR leukemia = tested on: SR leukemia
SNB-75 CNS = tested on: SNB-75 CNS
U251 CNS = tested on: U251 CNS
SF-295 CNS = tested on: SF-295 CNS
NCI-H226 lung = tested on: NCI-H226 lung
MDA-MB-435 = tested on: MDA-MB-435
EKVX NSCLC = tested on: EKVX NSCLC
RXF 393 renal = tested on: RXF 393 renal
RPMI-8226 leukemia = tested on: RPMI-8226 leukemia
786-0 renal = tested on: 786-0 renal
MDA-MB-231 breast = tested on: MDA-MB-231 breast
SF-539 CNS = tested on: SF-539 CNS
TK-10 renal = tested on: TK-10 renal
SW-620 colon = tested on: SW-620 colon

CC(C)(OCc1ccccc1)c1ccccc1P(c1ccccc1)c1ccccc1
TGI (K-562 leukemia): > 100 µM
TGI (CAKI-1 renal): > 100 µM
TGI (HOP-92 NSCLC): > 100 µM
TGI (T-47D breast): > 100 µM
TGI (SK-MEL-28 melanoma): > 100 µM
TGI (SF-268 CNS): > 100 µM
TGI (MALME-3M melanoma): > 100 µM
TGI (A549 NSCLC): > 100 µM
TGI (OVCAR-4 ovarian): > 100 µM
TGI (UACC-62 melanoma): > 100 µM
TGI (HS 578T breast): > 100 µM
TGI (NCI/ADR-RES ovarian): > 100 µM
TGI (SN12C renal): > 100 µM
TGI (UACC-257 melanoma): > 100 µM
TGI (OVCAR-5 ovarian): > 100 µM
TGI (MOLT-4 leukemia): 84.5 µM
TGI (MCF7 breast): > 100 µM
TGI (OVCAR-3 ovarian): > 100 µM
TGI (SK-OV-3 ovarian): > 100 µM
TGI (SK-MEL-2 melanoma): > 100 µM
TGI (NCI-H460 lung): > 100 µM
TGI (HCT-116 colon): > 100 µM
TGI (OVCAR-8 ovarian): > 100 µM
TGI (COLO 205 colon): > 100 µM
TGI (HOP-62 NSCLC): > 100 µM
TGI (PC-3 prostate): > 100 µM
TGI (DU-145 prostate): > 100 µM
TGI (HT29 colon): > 100 µM
TGI (KM12 colon): 58 µM
TGI (IGROV1 ovarian): > 100 µM
TGI (NCI-H23 lung): 94 µM
TGI (M14 melanoma): > 100 µM
TGI (A498 renal): > 100 µM
TGI (SK-MEL-5 melanoma): > 100 µM
TGI (HL-60(TB) leukemia): 62.9 µM
TGI (NCI-H522 lung): > 100 µM
TGI (ACHN renal): > 100 µM
TGI (BT-549 breast): > 100 µM
TGI (SNB-19 CNS): > 100 µM
TGI (HCT-15 colon): > 100 µM
TGI (UO-31 renal): > 100 µM
TGI (SR leukemia): > 100 µM
TGI (SNB-75 CNS): > 100 µM
TGI (U251 CNS): > 100 µM
TGI (SF-295 CNS): > 100 µM
TGI (NCI-H226 lung): > 100 µM
TGI (MDA-MB-435): > 100 µM
TGI (EKVX NSCLC): 91.2 µM
TGI (RXF 393 renal): > 100 µM
TGI (RPMI-8226 leukemia): 22.8 µM
TGI (786-0 renal): > 100 µM
TGI (MDA-MB-231 breast): > 100 µM
TGI (SF-539 CNS): > 100 µM
TGI (TK-10 renal): > 100 µM
TGI (SW-620 colon): > 100 µM
